Target: T1, β-PGM (β-phosphoglucomutase) (Pyrococcus horikoshii, UniProt O58510)
T1 construct: gene PH0749; recombinant, plasmid pET20b-βpgm, E. coli BL21(DE3), purified
T1 sequence (O58510 1-230): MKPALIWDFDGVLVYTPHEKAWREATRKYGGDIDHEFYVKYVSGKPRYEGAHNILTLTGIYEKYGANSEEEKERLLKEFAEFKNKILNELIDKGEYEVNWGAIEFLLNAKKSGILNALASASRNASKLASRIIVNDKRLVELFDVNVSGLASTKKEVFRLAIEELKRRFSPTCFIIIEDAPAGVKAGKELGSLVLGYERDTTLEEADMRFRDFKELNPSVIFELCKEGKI
Assay: G6P formation, G6PDH NADH assay at […] nm
Type: biochemical
Settings: 10 mM β-G1P; 10 mM MgCl2; pH 7.0; 37 °C

Compound: O=P(O)(O)O[C@@H]1O[C@H](CO)[C@@H](O)[C@H](O)[C@H]1O [β-G1P]
- G6P formation, G6PDH NADH assay at 340 nm: β-PGM was able to utilize β-G1P but showed no activity for α-G1P

From publication PMC10521662 (Biodesign Research, 2022)
